Data taken from paper PMC4702177, “Discovering new mTOR inhibitors for cancer treatment through virtual screening methods and in vitro assays” (Scientific Reports, 2016).
“And” between values parts separate entries of the source, which are not always exact repeats. Identical values can stand only once.

Tests used:
[1] = target: T1, human recombinant mTOR kinase (Homo sapiens, UniProt P42345); experiment: In vitro mTOR kinase assay (K-LISA ELISA, p70S6K-GST substrate); format: biochemical; conditions: for inhibition at 10 µM: triplicate measurements; for IC50: mean ± SD of triplicate measurements
T1 construct: a purified recombinant mTOR fragment (amino acids 1360-2549, CBA104-1KIT from Calbiochem); purchased Calbiochem CBA104-1KIT
Protocol: The mTOR kinase inhibitory activities of the 41 final virtual hits were determined using an ELISA-based activity assays that utilize a p70S6K-GST fusion protein as a specific mTOR substrate (see the Experimental Section for details). For the initial screening, all the activities were measured at a concentration of 10 μM.
mTOR activity was evaluated using a purified recombinant mTOR fragment (amino acids 1360-2549, CBA104-1KIT from Calbiochem). The K-LISA^TM mTOR activity kit is an ELISA-based activity assay for detection of phosphorylation of a p70S6K-GST fusion protein (a specific mTOR substrate) in the presence of ATP. The assay was optimized for use with mTOR as described in the Calbiochem protocol. The assay takes place in 96-well plates and can be divided into two phases: an mTOR kinase reaction phase and phosphorylated substrate detection phase.
In the kinase reaction phase, the following components were mixed in the same well: 5 μL of a solution containing 5 μg/mL mTOR substrate (recombinant p70S6K-GST fusion protein) in Tris-buffered saline (1 L TBS: sodium chloride 8.8 g, Tris Base 2.4 g, HCl 13 mL, Tween-20 10 ml, ddH2O), 5 μL ATP solution containing 20 mM ATP diluted in kinase assay buffer (pH 7.4, 0.01% Tween 20, 1 mM EDTA, 10 mM MgCl2, 1 mM DTT), […] of human recombinant mTOR kinase at the optimal concentration (80 ng/well) diluted in kinase assay buffer, and 5 μL of serial dilutions of inhibitors diluted in DMSO and kinase assay buffer. For each inhibitor concentration, the assay was run in triplicate. The final reaction volume was 100 μL per well, and samples incubated for 30 min at room temperature.
The kinase reaction was stopped by adding 10 μL kinase stop solution to each well. The phosphorylated substrate was detected using Anti-p70S6K-pT389 antibody, followed by detection with HRP-Antibody Conjugate and TMB Substrate. Then, ELISA stop solution was added to each well to stop the reaction, and relative mTOR inhibition activity was determined by reading the absorbance at dual wavelengths of 450/540 nm.

[2] = tested on: MCF-7 (human breast cancer cell); experiment: In vitro cell proliferation assay; format: cell-based; conditions: data not shown
Protocol: (§1) Most human breast cancer cells and cervical cancer cells become resistant to current chemotherapeutic drugs due to mutation of apoptotic mechanisms. It has been reported that MCF-7 cells are resistant to most of the drugs approved by the US Food and Drug Administration (FDA), including paclitaxel, doxorubicin, 5-fluorouracil, etoposide, and camptothecin[31][32].
(§2) Cell proliferation was measured with an MTS assay (CellTiter 96 Aqueous ONE Solution kit; Promega, Madison, USA). MCF-7, HeLa, MGC-803, C6 and U87 cells in log-phase were seeded (5 × 10^3 cells/well) in 96-well plates for 24 h, and then the medium were replaced with fresh medium containing different concentrations of compounds. […] After incubation for 48 h, the cells were further incubated with 20 μL of MTS for 1–4 h at 37 °C in a humidified incubator with 5% CO2. The absorbance at 490 nm was measured using a mircoplate reader (Model680, Bio-Rad; Hercules, CA, USA). The inhibition rate (%) was calculated as equation (1): […]
(§3) IC50 values were determined from the results of at least three independent tests and calculated from the inhibition curves.

C6 (Glioma cell) = experiment: In vitro cell proliferation assay; format: cell-based; conditions: data not shown
Protocol: as §1, §2, §3

U87 cells (Glioma cell) = experiment: In vitro cell proliferation assay; format: cell-based; conditions: data not shown
Protocol: as §1, §2, §3

[3] = tested on: HeLa (human cervical cancer cell); experiment: In vitro cell proliferation assay; format: cell-based; conditions: data not shown
Protocol: as §1, §2, §3

[4] = tested on: MGC-803 (human gastric cancer); experiment: In vitro cell proliferation assay; format: cell-based; conditions: data not shown
Protocol: as §1, §2, §3

mTOR kinase = target: mTOR kinase; set-up: method as in PMID 11575159; conditions: read-out: IC50 (mTOR kinase, reported); cited from earlier work

T1 sequence (P42345 1360-2549): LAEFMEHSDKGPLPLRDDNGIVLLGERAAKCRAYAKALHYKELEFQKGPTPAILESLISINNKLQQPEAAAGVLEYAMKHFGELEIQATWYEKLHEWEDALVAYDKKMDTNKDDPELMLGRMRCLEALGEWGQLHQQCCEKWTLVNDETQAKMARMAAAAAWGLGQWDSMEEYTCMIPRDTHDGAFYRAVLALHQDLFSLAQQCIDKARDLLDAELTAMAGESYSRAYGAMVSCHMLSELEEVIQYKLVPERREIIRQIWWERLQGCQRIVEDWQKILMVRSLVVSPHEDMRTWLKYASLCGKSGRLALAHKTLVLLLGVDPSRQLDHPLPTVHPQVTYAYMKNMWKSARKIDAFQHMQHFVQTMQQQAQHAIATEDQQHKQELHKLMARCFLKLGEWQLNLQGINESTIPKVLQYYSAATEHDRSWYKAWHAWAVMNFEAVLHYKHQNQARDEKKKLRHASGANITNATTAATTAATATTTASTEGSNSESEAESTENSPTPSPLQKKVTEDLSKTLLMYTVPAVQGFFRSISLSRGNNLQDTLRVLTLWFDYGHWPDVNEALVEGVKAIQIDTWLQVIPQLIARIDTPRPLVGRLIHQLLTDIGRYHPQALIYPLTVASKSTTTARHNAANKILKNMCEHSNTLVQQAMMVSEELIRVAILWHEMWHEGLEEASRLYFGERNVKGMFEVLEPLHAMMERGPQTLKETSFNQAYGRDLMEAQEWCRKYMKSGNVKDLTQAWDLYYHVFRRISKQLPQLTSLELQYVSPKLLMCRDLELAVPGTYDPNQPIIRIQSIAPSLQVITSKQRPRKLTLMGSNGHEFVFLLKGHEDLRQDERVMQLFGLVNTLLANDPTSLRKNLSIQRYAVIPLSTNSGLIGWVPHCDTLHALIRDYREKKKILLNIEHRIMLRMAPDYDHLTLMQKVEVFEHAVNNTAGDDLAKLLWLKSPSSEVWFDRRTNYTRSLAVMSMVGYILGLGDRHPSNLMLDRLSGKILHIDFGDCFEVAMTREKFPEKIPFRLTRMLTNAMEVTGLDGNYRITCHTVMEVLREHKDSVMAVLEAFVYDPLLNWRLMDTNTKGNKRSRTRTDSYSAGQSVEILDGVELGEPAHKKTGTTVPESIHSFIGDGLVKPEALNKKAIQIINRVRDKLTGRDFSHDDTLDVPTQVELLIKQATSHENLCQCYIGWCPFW

| SMILES | inhibition at 10 µM [1] | IC50 [1] | other results |
| --- | --- | --- | --- |
| COc1cc(/C=C2/SC(=S)N(C)C2=O)ccc1Oc1nc(N2CCOCC2)nc(N2CCOCC2)n1 [Compound 6] | 22% | – | – |
| Cc1cc(=O)n2nc(N)c(/N=N/c3ccccc3)c2[nH]1 [Compound 9] | 23% | – | – |
| Nc1nc2ncc(-c3n[nH]cc3[N+](=O)[O-])cn2n1 [Compound 12] | 30% | – | – |
| O=[N+]([O-])c1c(Nc2ccc3c(c2)OCO3)cc(N2CCOCC2)c2nonc12 [Compound 18] | 38% | > 50 µM | – |
| Clc1ccc(-c2nnc3sc(-c4cnccn4)nn23)cc1 [Compound 20] | 55% | < 10 µM and 9.2 µM | – |
| c1coc(-c2nnc3sc(-c4cnccn4)nn23)c1 [Compound 21] | 50% | 14.4 ± 2.02 µM | – |
| COC(=O)c1sc2nc(-c3ccccc3)nc(N3CCOCC3)c2c1C [Compound 25] | 36% | > 50 µM | – |
| O=C(NC(=S)Nc1ccc2oc(-c3cccnc3)nc2c1)c1ccco1 [Compound 26] | 33% | > 50 µM | – |
| COc1cccc(-c2nn3c(N)c(C#N)c(-c4cccnc4)nc3c2C)c1 [Compound 27] | 38% | 28.6 ± 2.65 µM | – |
| NC(=O)c1nnn(Cc2cc(Cl)c(C(=O)c3ccc(Cl)cc3)c(Cl)c2)c1N [Compound 33] | 21% | – | – |
| O=C(CCl)Nc1ccc(/C=C2\CCCn3c2nc2cc(NC(=O)CCl)ccc2c3=O)cc1 [Compound 36] | 31% | 14.9 ± 1.01 µM | – |
| COc1c(-c2ccoc2)oc2ccc(C)cc2c1=O [Compound 37] | 22% | – | – |
| CNc1cccc2c(NC(=S)NC(=O)c3cccc(C(=O)NC(C)=S)c3)cccc12 [Compound 40] | 91% | < 10 µM and 1.47 µM | anti-proliferative activity [2]: do not show anti-proliferative activity; anti-proliferative activity (C6 (Glioma cell)): do not show anti-proliferative activity; anti-proliferative activity (U87 cells (Glioma cell)): do not show anti-proliferative activity; anti-proliferative activity [3]: do not show anti-proliferative activity; anti-proliferative activity [4]: do not show anti-proliferative activity |
